From patent US10561703B2, “Method of modulating sex hormone levels using a sex hormone secretion modulator” (GEMVAX & KAEL CO., LTD., priority 2013, dated 2020)

Test system: Testosterone
Test: Testosterone level in blood (serum CLIA) after repeated sc PEP-1
Format: in vivo, SD rats
Experimental: PEP-1 (peptide of SEQ ID NO: 1), lyophilized white powder, obtained according to the method mentioned in example 1 was dissolved in 0.9% of saline, considering the correction factor of PEP-1 (purity: 94.13%, content: 92.36%, correction factor: 1.15). 50 mg/mL stock solution was further diluted into 20 mg/mL, 2 mg/mL, and 1 mg/mL with 0.9% saline, and stored at 4° C. for a week until the use.
The purpose of this example is to confirm the change of sexual hormones in blood from SD rats with 7 days repeated daily administration of SEQ ID NO: 1 peptide, PEP-1. This experiment followed the Ethics Regulation of Animal Test by KAMSI Inc. (Korea Animal Medical Science Institute). In addition, this experiment, Non-GLP experiment, referred to the MFDS (Ministry of Food and Drug Safety) notification; Agent 2013-40 (5th April 2013), Principles of Good Laboratory Practice (1997).
SPF Rats (Crlj:CD(SD)) were purchased from ORIENTBio Inc. (Mokdong-ri, Buk-myeon, Gapyeong-gun, Gyeonggi-do, Republic of Korea). 75 male (6.5 weeks old and 190˜210 g) and 75 female (6.5 weeks old and 160˜180 g) rats were monitored for 4 days, and 64 of male and female rats (each) were selected for the experiment. Raising condition is as follows; 23±3° C. of temperature, […] of relative humidity, 10˜20 times/hr of number of air changes, 12 hours (8 a.m.˜8 p.m.) of lighting with 150˜300 Lux of intensity.
64 male and female […] (mentioned above) were divided into 8 groups. Administration regimen, for example, drugs, routes, dosages, and volumes were as follows:
The detailed administration regimen is as follows; once a day, twice a day and twice a week in each experimental group. Injection initiated at 10 a.m. every day, and each rat was injected at one minute intervals. Rats in Group 9, 10, 13 and 14 were injected twice a week. Administration of high dose test agent preceded that of low dose. The volume of injection was calculated using recently measured weight of rats, and it was 5 mL/kg. Subcutaneous injection was performed as follows; assistant tilted the back of rat upward, and experimenter sterilized the back of rat with 70% alcohol, followed by subcutaneous injection of test agent with 26 G syringe.
1.4 mL of blood sample (0.7 mL of serum) was collected after measurement of weight (Day 0). Next day (1 Day), 1.4 mL of blood sample (0.7 mL of serum) was collected twice after injection of test agent (4 hrs and 8 hrs after administration of test agent). For next 6 days (Day 2˜Day 7), 1.4 mL of blood was extracted once everyday (4 hours after injection of test agent). Dose and volume of test agent of each group followed the Table 3, and injection time zone was same every day. Blood was extracted from the jugular vein, and left at room temperature for 30 minutes. Serum was separated using centrifugation (10,000 rpm for 5 minutes), and stored at −70±5° C. in Deep freezer until the use. Blood extraction from each subject was done in the same time zone every day.
A CLIA (Chemi-Luminescence Immune Assay) Kit was used to analyze Testosterone, Estradiol E2, FSH (Follicle stimulating hormone), and LH (Luteinizing hormone). Analysis was completed within 48 hrs after blood extraction (Laboratory Medicine Department, Chung-Ang University Hospital), and detailed method is as follows; One-way ANOVA was used to verify the comparison between the vehicle and PEP-1, and between different doses of PEP-1. For further analysis, Duncan test was used as parametric test and Dunnett's test as non-parametric test. p<0.05 represents the statistical significance, and all statistical analysis was carried out with SPSS 10.1.
Testosterone was analyzed using the samples prepared from example 2. 15 μL of serum was used for analysis. Fundamentals of analysis is competitive immunoassay based on direct chemi-luminescent. As mentioned in example 2, CLIA (Chemi-luminescence immune assay) Kit was used for Testosterone analysis, following the manufacture's protocol. […]

For “EARPALLTSRLRFIPK (listed as Homo sapiens) [PEP-1, hormone secretion modulator / GnRH analog]”, the “Testosterone level in blood” value (G11 Female 100 mg/kg sc 1/day x7, 6 days) was 1.01 ng/dL, the “Testosterone level in blood” value (G11 Female 100 mg/kg sc 1/day x7, 7 days) was 1.25 ng/dL and the “Testosterone level in blood” value (G11 Female 100 mg/kg sc 1/day x7, pre) was 1.79 ng/dL. The “Testosterone level in blood” value (G12 Male 100 mg/kg sc 1/day x7, 4 hr) was 0.08 ng/dL, the “Testosterone level in blood” value (G12 Male 100 mg/kg sc 1/day x7, 8 hr) was 0.01 ng/dL and the “Testosterone level in blood” value (G12 Male 100 mg/kg sc 1/day x7, 2 days) was 0.01 ng/dL. The “Testosterone level in blood” value (G12 Male 100 mg/kg sc 1/day x7, 3 days) was 0.05 ng/dL, the “Testosterone level in blood” value (G12 Male 100 mg/kg sc 1/day x7, 4 days) was 0.17 ng/dL and the “Testosterone level in blood” value (G12 Male 100 mg/kg sc 1/day x7, 5 days) was 0.11 ng/dL. The “Testosterone level in blood” value (G12 Male 100 mg/kg sc 1/day x7, 6 days) was 0.12 ng/dL, the “Testosterone level in blood” value (G12 Male 100 mg/kg sc 1/day x7, 7 days) was 0.12 ng/dL and the “Testosterone level in blood” value (G12 Male 100 mg/kg sc 1/day x7, pre) was 0.18 ng/dL. The “Testosterone level in blood” value (G13 Female 100 mg/kg sc 2/week x2 (days 1,7), 4 hr) was 7.48 ng/dL, the “Testosterone level in blood” value (G13 Female 100 mg/kg sc 2/week x2 (days 1,7), 8 hr) was 6.34 ng/dL and the “Testosterone level in blood” value (G13 Female 100 mg/kg sc 2/week x2 (days 1,7), 2 days) was 0.97 ng/dL. For the same sequence, the “Testosterone level in blood” value (G13 Female 100 mg/kg sc 2/week x2 (days 1,7), 3 days) was 1.65 ng/dL, the “Testosterone level in blood” value (G13 Female 100 mg/kg sc 2/week x2 (days 1,7), 4 days) was 1.25 ng/dL and the “Testosterone level in blood” value (G13 Female 100 mg/kg sc 2/week x2 (days 1,7), 5 days) was 1.3 ng/dL. For the same sequence, the “Testosterone level in blood” value (G13 Female 100 mg/kg sc 2/week x2 (days 1,7), 6 days) was 2.54 ng/dL, the “Testosterone level in blood” value (G13 Female 100 mg/kg sc 2/week x2 (days 1,7), 7 days) was 12.35 ng/dL and the “Testosterone level in blood” value (G13 Female 100 mg/kg sc 2/week x2 (days 1,7), pre) was 1.71 ng/dL. The “Testosterone level in blood” value (G14 Male 100 mg/kg sc 2/week x2 (days 1,7), 4 hr) was 0.07 ng/dL, the “Testosterone level in blood” value (G14 Male 100 mg/kg sc 2/week x2 (days 1,7), 8 hr) was 0.01 ng/dL and the “Testosterone level in blood” value (G14 Male 100 mg/kg sc 2/week x2 (days 1,7), 2 days) was 0.01 ng/dL. The “Testosterone level in blood” value (G14 Male 100 mg/kg sc 2/week x2 (days 1,7), 3 days) was 0.13 ng/dL, the “Testosterone level in blood” value (G14 Male 100 mg/kg sc 2/week x2 (days 1,7), 4 days) was 0.17 ng/dL and the “Testosterone level in blood” value (G14 Male 100 mg/kg sc 2/week x2 (days 1,7), 5 days) was 0.13 ng/dL. For the same sequence, the “Testosterone level in blood” value (G14 Male 100 mg/kg sc 2/week x2 (days 1,7), 6 days) was 0.14 ng/dL, the “Testosterone level in blood” value (G14 Male 100 mg/kg sc 2/week x2 (days 1,7), 7 days) was 0.15 ng/dL and the “Testosterone level in blood” value (G14 Male 100 mg/kg sc 2/week x2 (days 1,7), pre) was 0.13 ng/dL. For the same sequence, the “Testosterone level in blood” value (G15 Female 250 mg/kg sc 1/day x7, 4 hr) was 6.27 ng/dL, the “Testosterone level in blood” value (G15 Female 250 mg/kg sc 1/day x7, 8 hr) was 8.2 ng/dL and the “Testosterone level in blood” value (G15 Female 250 mg/kg sc 1/day x7, 2 days) was 3.77 ng/dL. For the same sequence, the “Testosterone level in blood” value (G15 Female 250 mg/kg sc 1/day x7, 3 days) was 2.09 ng/dL, the “Testosterone level in blood” value (G15 Female 250 mg/kg sc 1/day x7, 4 days) was 0.8 ng/dL and the “Testosterone level in blood” value (G15 Female 250 mg/kg sc 1/day x7, 5 days) was 0.75 ng/dL. The “Testosterone level in blood” value (G15 Female 250 mg/kg sc 1/day x7, 6 days) was 1.27 ng/dL, the “Testosterone level in blood” value (G15 Female 250 mg/kg sc 1/day x7, 7 days) was 1.52 ng/dL and the “Testosterone level in blood” value (G15 Female 250 mg/kg sc 1/day x7, pre) was 1.65 ng/dL. The “Testosterone level in blood” value (G16 Male 250 mg/kg sc 1/day x7, 4 hr) was 0.11 ng/dL, the “Testosterone level in blood” value (G16 Male 250 mg/kg sc 1/day x7, 8 hr) was 0.03 ng/dL and the “Testosterone level in blood” value (G16 Male 250 mg/kg sc 1/day x7, 2 days) was 0 ng/dL. The “Testosterone level in blood” value (G16 Male 250 mg/kg sc 1/day x7, 3 days) was 0.08 ng/dL, the “Testosterone level in blood” value (G16 Male 250 mg/kg sc 1/day x7, 4 days) was 0.18 ng/dL and the “Testosterone level in blood” value (G16 Male 250 mg/kg sc 1/day x7, 5 days) was 0.09 ng/dL. For the same sequence, the “Testosterone level in blood” value (G16 Male 250 mg/kg sc 1/day x7, 6 days) was 0.14 ng/dL, the “Testosterone level in blood” value (G16 Male 250 mg/kg sc 1/day x7, 7 days) was 0.12 ng/dL and the “Testosterone level in blood” value (G16 Male 250 mg/kg sc 1/day x7, pre) was 0.18 ng/dL. The Testosterone level (female group, after injection of PEP-1) was 0.05 ng/dL, the “Effect on the Testosterone level” value (female rat) was “does not have significant effect” and the Testosterone level (male groups, Day 1, all groups injected with PEP-1) was 6 to 10 ng/dL. For the same sequence, the “Testosterone level, PEP-1 versus vehicle” value (male groups, after Day 3) was “no significant difference between PEP-1 and vehicle”.
